This is an account of results in patent US9409908B2 (priority 2012, dated 2016).

Assay [1] concerns the target purified human Factor XIa (Homo sapiens (Human), UniProt P03951). The assay can be described thus: biochemical. The assay is classed as biochemical.
The target of assay [2] is purified human plasma kallikrein (Homo sapiens (Human), UniProt P03952). The assay can be described thus: biochemical. The assay is classed as biochemical.
The mark [3] stands for this setting: TFA salt, read-out: Factor XIa Ki.
[4] abbreviates: TFA salt, read-out: Plasma Kallikrein Ki.

Counter-ions that a name gives are not always drawn. Like-named read-outs stand apart in the source and are kept apart here. Where only a bound is given, the exact number is not on record here.

purified human plasma kallikrein, sequence (P03952 whole entry, looked up): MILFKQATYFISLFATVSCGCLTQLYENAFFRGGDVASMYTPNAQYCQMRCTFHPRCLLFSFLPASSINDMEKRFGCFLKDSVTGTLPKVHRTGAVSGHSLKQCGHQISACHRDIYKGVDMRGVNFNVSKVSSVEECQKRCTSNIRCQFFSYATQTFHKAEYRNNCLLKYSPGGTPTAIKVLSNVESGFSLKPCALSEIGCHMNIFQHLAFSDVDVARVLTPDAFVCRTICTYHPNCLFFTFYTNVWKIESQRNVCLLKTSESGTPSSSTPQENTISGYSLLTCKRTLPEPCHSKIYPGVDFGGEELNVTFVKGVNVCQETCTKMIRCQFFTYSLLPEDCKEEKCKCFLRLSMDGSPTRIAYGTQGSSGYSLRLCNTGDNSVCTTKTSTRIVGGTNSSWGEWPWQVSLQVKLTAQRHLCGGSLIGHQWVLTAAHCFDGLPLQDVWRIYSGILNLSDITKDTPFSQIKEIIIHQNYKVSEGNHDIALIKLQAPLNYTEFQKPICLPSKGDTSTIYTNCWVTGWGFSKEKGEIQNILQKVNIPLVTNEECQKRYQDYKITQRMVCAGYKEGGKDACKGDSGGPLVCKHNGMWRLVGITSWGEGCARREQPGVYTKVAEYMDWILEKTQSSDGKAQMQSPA
purified human plasma kallikrein, sequence (P03952 whole entry partner, looked up): as the sequence (P03952 whole entry, looked up) above
purified human Factor XIa, sequence (P03951 whole entry, looked up): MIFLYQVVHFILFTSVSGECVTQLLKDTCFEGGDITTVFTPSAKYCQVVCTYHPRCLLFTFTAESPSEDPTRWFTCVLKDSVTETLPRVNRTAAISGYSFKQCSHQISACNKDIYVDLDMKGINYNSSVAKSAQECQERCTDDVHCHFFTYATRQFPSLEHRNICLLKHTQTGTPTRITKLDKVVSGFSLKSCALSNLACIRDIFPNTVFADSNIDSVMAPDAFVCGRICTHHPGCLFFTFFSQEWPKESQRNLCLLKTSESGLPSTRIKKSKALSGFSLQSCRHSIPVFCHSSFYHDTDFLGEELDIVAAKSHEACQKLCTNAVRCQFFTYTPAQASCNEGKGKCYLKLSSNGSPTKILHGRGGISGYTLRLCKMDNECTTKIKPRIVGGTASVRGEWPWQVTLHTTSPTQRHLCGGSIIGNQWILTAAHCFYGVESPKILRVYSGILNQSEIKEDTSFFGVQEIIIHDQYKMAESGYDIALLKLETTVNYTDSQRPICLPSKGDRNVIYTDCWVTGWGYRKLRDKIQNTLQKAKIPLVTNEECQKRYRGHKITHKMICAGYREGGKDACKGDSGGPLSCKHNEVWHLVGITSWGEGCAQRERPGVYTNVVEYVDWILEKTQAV
purified human Factor XIa, sequence (P03951 whole entry partner, looked up): as the sequence (P03951 whole entry, looked up) above

Take `COC(=O)Nc1ccc2c(c1)NC(=O)[C@H](C)CCC[C@H](N1CCC(c3cccc(Cl)n3)=CC1=O)c1cc-2ccn1` [Example 157, Methyl N-[(10R,14S)-14-[4-(6-chloropyridin-2-yl)-6-oxo-1,2,3,6-tetrahydropyridin-1-yl]-10-methyl-9-oxo-8,16-diazatricyclo[13.3.1.0^2,7]nonadeca-1(19),2,4,6,15,17-hexaen-5-yl]carbamate, 2 TFA salt]: the inhibition constant (Ki) in assay [1] (read-out: Factor XIa Ki) came to 74.9 nM; in assay [2] (read-out: Plasma Kallikrein Ki), 108 nM.
With `C[C@@H]1CCC[C@H](N2CCC(c3c(F)ccc(Cl)c3F)=CC2=O)c2cc(ccn2)-c2ccc(CO)cc2NC1=O` [Example 149, (10R,14S)-14-[4-(3-chloro-2,6-difluorophenyl)-6-oxo-1,2,3,6-tetrahydropyridin-1-yl]-5-(hydroxymethyl)-10-methyl-8,16-diazatricyclo[13.3.1.0^2,7]nonadeca-1(19),2(7),3,5,15,17-hexaen-9-one], the values for the inhibition constant Ki in assay [1] (read-out: Factor XIa Ki) and in assay [2] (read-out: Plasma Kallikrein Ki) were 17.5 nM and 22.6 nM, respectively.
As to `C[C@@H]1CCC[C@H](n2ccc(-c3cccc(Cl)c3F)cc2=O)c2cc(ccn2)-c2c(F)cc(F)cc2NC1=O` [Example 212, (10R,14S)-14-[4-(3-chloro-2-fluorophenyl)-2-oxo-1,2-dihydropyridin-1-yl]-3,5-difluoro-10-methyl-8,16-diazatricyclo[13.3.1.0^2,7]nonadeca-1(19),2(7),3,5,15,17-hexaen-9-one, TFA salt], the Ki in assay [1] (read-out: Factor XIa Ki) was 111 nM; in assay [2] (read-out: Plasma Kallikrein Ki), 286 nM.
For `COC(=O)c1ccc2c(c1)-c1cccc(c1)[C@@H](N1CCC(c3c(Br)ccc(Cl)c3F)=CC1=O)CCC[C@@H](C)C(=O)N2` [Example 163, Methyl (10R,14S)-14-[4-(6-bromo-3-chloro-2-fluorophenyl)-6-oxo-1,2,3,6-tetrahydropyridin-1-yl]-10-methyl-9-oxo-8-azatricyclo[13.3.1.0^2,7]nonadeca-1(19),2,4,6,15,17-hexaene-4-carboxylate], in that order: over 398 nM and 224 nM.
For `C[C@@H]1CCC[C@H](N2CCC(c3c(F)ccc(Cl)c3F)=CC2=O)c2cc(ccn2)-c2ccc(Nc3ncccn3)cc2NC1=O` [Example 16, (10R,14S)-14-[4-(3-Chloro-2,6-difluorophenyl)-6-oxo-1,2,3,6-tetrahydropyridin-1-yl]-10-methyl-5-[(pyrimidin-2-yl)amino]-8,16-diazatricyclo[13.3.1.0^2,7]nonadeca-1(19),2(7),3,5,15,17-hexaen-9-one, 2 TFA salt], in that order: 1.15 nM and 1 nM.
For `C[C@@H]1CCC[C@H](N2CCC(c3c(F)cccc3C#N)=CC2=O)c2cc(ccn2)-c2ccccc2NC1=O` [Example 50, 3-Fluoro-2-{1-[(10R,14S)-10-methyl-9-oxo-8,16-diazatricyclo[13.3.1.0^2,7]nonadeca-1(19),2,4,6,15,17-hexaen-14-yl]-6-oxo-1,2,3,6-tetrahydropyridin-4-yl}benzonitrile, TFA salt], in that order: 102 nM and 130 nM.
As for `COC(=O)Nc1ccc2c(c1)NC(=O)[C@H](C)CCC[C@H](N1CCC(C3CCCC(C)C3)=CC1=O)c1cc-2ccn1` (single isomer, unassigned) [Example 153, TFA salt], the Ki in assay [1] (setting [3]) amounted to 20 nM; in assay [2] (setting [4]) it was 21.2 nM.
With `C[C@@H]1CCC[C@H](N2CCC(c3c(Br)ccc(Cl)c3F)=CC2=O)c2cc(ccn2)-c2cc(F)c(F)cc2NC1=O` [Example 206, (10R,14S)-14-[4-(6-bromo-3-chloro-2-fluorophenyl)-6-oxo-1,2,3,6-tetrahydropyridin-1-yl]-4,5-difluoro-10-methyl-8,16-diazatricyclo[13.3.1.0^2,7]nonadeca-1(19),2(7),3,5,15,17-hexaen-9-one, TFA salt], the Ki in assay [1] (read-out: Factor XIa Ki) was 11.8 nM; in assay [2] (read-out: Plasma Kallikrein Ki) it was 27.5 nM.
For `COC(=O)Nc1ccc2c(c1)C(=O)N[C@H](C)CCC[C@H](N1CCC(c3c(F)ccc(Cl)c3F)=CC1=O)c1cc-2ccn1` (single isomer, unassigned; diastereomer b) [Example 194, TFA salt], the Ki in assay [1] was over 422 nM; in assay [2] (Plasma Kallikrein Ki), 310 nM.
Take `C[C@@H]1CCC[C@H](N2CCC(c3c(-c4ccncc4)ccc(Cl)c3F)=CC2=O)c2cc(ccn2)-c2ccccc2NC1=O` [Example 56, (10R,14S)-14-{4-[3-Chloro-2-fluoro-6-(pyridin-4-yl)phenyl]-6-oxo-1,2,3,6-tetrahydropyridin-1-yl}-10-methyl-8,16-diazatricyclo[13.3.1.0^2,7]nonadeca-1(19),2,4,6,15,17-hexaen-9-one, TFA salt]: the inhibitory constant (Ki) in assay [1] (read-out: Factor XIa Ki) came out at 16.5 nM; in assay [2] (read-out: Plasma Kallikrein Ki), 137 nM.
With `COC(=O)Nc1ccc2c(c1)NC(=O)[C@H](C)CCC[C@H](N1CCC(C3CCCC(C)C3)=CC1=O)c1cc-2ccn1` (single isomer, unassigned) [Example 225, TFA salt], the Ki in assay [1] (setting [3]) was 26.1 nM; in assay [2] (setting [4]), 95.5 nM.
In the case of `Cc1[nH]c2cc3c(cc2c1C(=O)O)-c1ccnc(c1)[C@@H](N1CCC(c2c(F)ccc(Cl)c2F)=CC1=O)CCC[C@@H](C)C(=O)N3` [Example 83, (13R,17S)-17-[4-(3-Chloro-2,6-difluorophenyl)-6-oxo-1,2,3,6-tetrahydropyridin-1-yl]-6,13-dimethyl-12-oxo-7,11,19-triazatetracyclo[16.3.1.0^2,10.0^4,8]docosa-1(22),2,4(8),5,9,18,20-heptaene-5-carboxylic acid, TFA salt], the inhibition constant Ki was 0.06 nM in assay [1] (read-out: Factor XIa Ki) and 7 nM in assay [2] (read-out: Plasma Kallikrein Ki).
For `C[C@@H]1CCC[C@H](N2CCC(c3c(F)ccc(Cl)c3F)=CC2=O)c2cc(ccn2)-c2cc(Br)ccc2NC1=O` [Example 137, (10R,14S)-4-bromo-14-[4-(3-chloro-2,6-difluorophenyl)-6-oxo-1,2,3,6-tetrahydropyridin-1-yl]-10-methyl-8,16-diazatricyclo[13.3.1.0^2,7]nonadeca-1(19),2(7),3,5,15,17-hexaen-9-one], in that order: 69.6 nM and 91.3 nM.
Consider `COC(=O)Nc1ccc2c(c1)C(=O)NCCCCC[C@H](N1CCC(c3c(F)ccc(Cl)c3F)=CC1=O)c1cc-2ccn1` [Example 152, Methyl N-[(15S)-15-[4-(3-chloro-2,6-difluorophenyl)-6-oxo-1,2,3,6-tetrahydropyridin-1-yl]-8-oxo-9,17-diazatricyclo[14.3.1.0^2,7]icosa-1(20),2(7),3,5,16,18-hexaen-5-yl]carbamate, TFA salt], for which the Ki is 25.6 nM in assay [1] (read-out: Factor XIa Ki) and 24.3 nM in assay [2] (read-out: Plasma Kallikrein Ki).
With `COC(=O)Nc1ccc2c(c1)NC(=O)[C@H](C)CCC[C@H](N1CCC(c3cncc(Cl)c3)=CC1=O)c1cc-2ccn1` [Example 99, Methyl N-[(10R,14S)-14-[4-(5-chloropyridin-3-yl)-6-oxo-1,2,3,6-tetrahydropyridin-1-yl]-10-methyl-9-oxo-8,16-diazatricyclo[13.3.1.0^2,7]nonadeca-1(19),2,4,6,15,17-hexaen-5-yl]carbamate, his TFA salt], the Ki in assay [1] (read-out: Factor XIa Ki) worked out at 126 nM; in assay [2] (read-out: Plasma Kallikrein Ki), 2400 nM.
For `C[C@@H]1CCC[C@H](N2CCC(c3c(C#N)ccc(C#N)c3F)=CC2=O)c2cc(ccn2)-c2ccccc2NC1=O` [Example 46, (10R,14S)-14-[4-(3,6-Dicyano-2-fluorophenyl)-6-oxo-1,2,3,6-tetrahydropyridin-1-yl]-10-methyl-8,16-diazatricyclo[13.3.1.0^2,7]nonadeca-1(19),2,4,6,15,17-hexaen-9-one, TFA salt], in that order: 325 nM and 669 nM.
With `C[C@@H]1CCC[C@H](N2CCC(c3c(-n4cnnn4)ccc(Cl)c3F)=CC2=O)c2cc(ccn2)-c2cc(F)c(F)cc2NC1=O` [Example 215, (10R,14S)-14-{4-[3-chloro-2-fluoro-6-(1H-1,2,3,4-tetrazol-1-yl)phenyl]-6-oxo-1,2,3,6-tetrahydropyridin-1-yl}-4,5-difluoro-10-methyl-8,16-diazatricyclo[13.3.1.0^2,7]nonadeca-1(19),2(7),3,5,15,17-hexaen-9-one, TFA salt], the results for the Ki in assay [1] (read-out: Factor XIa Ki) and in assay [2] (read-out: Plasma Kallikrein Ki) were 0.07 nM and 3.61 nM, respectively.
For the compound `COC(=O)Nc1ccc2c(c1)NC(=O)[C@H](C)CCC[C@H](N1CCC(c3c(C#N)ccc(Cl)c3F)=CC1=O)c1cc-2cc(OC)n1` [Example 26, Methyl N-[(10R,14S)-14-[4-(3-chloro-6-cyano-2-fluorophenyl)-6-oxo-1,2,3,6-tetrahydropyridin-1-yl]-17-methoxy-10-methyl-9-oxo-8,16-diazatricyclo[13.3.1.0^2,7]nonadeca-1(18),2,4,6,15(19),16-hexaen-5-yl]carbamate], the inhibition constant Ki in assay [1] (read-out: Factor XIa Ki) is 0.09 nM; in assay [2] (read-out: Plasma Kallikrein Ki), 1 nM.
For `C[C@@H]1CCC[C@H](N2CCC(c3c(F)ccc(Cl)c3F)=CC2=O)c2cccc(c2)-c2cc(C(=O)O)ccc2NC1=O` [Example 166, (10R,14S)-14-[4-(3-chloro-2,6-difluorophenyl)-6-oxo-1,2,3,6-tetrahydropyridin-1-yl]-10-methyl-9-oxo-8-azatricyclo[13.3.1.0^2,7]nonadeca-1(19),2,4,6,15,17-hexaene-4-carboxylic acid], in that order: 6.38 nM and 113 nM.
For the compound `COC(=O)Nc1ccc2c(c1)NC(=O)[C@H](C)CCC[C@H](N1CCC(C3CCCC(C)C3)=CC1=O)c1cc-2ccn1` (single isomer, unassigned) [Example 218, TFA salt], the figures for the Ki in assay [1] (setting [3]) and in assay [2] (setting [4]) were 38.2 nM and 378 nM, respectively.
Turning to `COC(=O)Nc1ccc2c(c1)NC(=O)[C@H](C)CCC[C@H](N1CCC(c3c(OC(F)F)ccc(Cl)c3F)=CC1=O)c1ccnc-2c1` [Example 31, Methyl N-[(10R,14S)-14-{4-[3-chloro-6-(difluoromethoxy)-2-fluorophenyl]-6-oxo-1,2,3,6-tetrahydropyridin-1-yl}-10-methyl-9-oxo-8,18-diazatricyclo[13.3.1.0^2,7]nonadeca-1(19),2,4,6,15,17-hexaen-5-yl]carbamate, TFA salt], the Ki in assay [1] (read-out: Factor XIa Ki) stood at 0.04 nM; in assay [2] (read-out: Plasma Kallikrein Ki) it was 3 nM.

The Ki is a dissociation constant, usually derived from enzyme kinetics or from competition with a known ligand.
